Laboratory results as given in patent publication US9969719B2, “Substituted 2-hydrogen-pyrazole derivative serving as anticancer drug” (CHIA TAI TIANQING PHARMACEUTICAL GROUP CO., LTD., priority 2015, dated 2018).
Read-outs that look alike come from different tables or passages of the source.

Columns and labels:
[1] = biological target: T1, CDK4/cyclin D1 (Homo sapiens, UniProt P11802); test: CDK4/cyclin D1 Lance Ultra enzyme assay; type: biochemical; settings: for inhibitory activities against CDK4 compared with the reference compounds: versus Palbociclib and LY2835219, in words; for IC50: 350 μM ATP, 180 minutes
T1 construct: purchased Life Technologies
T1 sequence (P11802 whole entry): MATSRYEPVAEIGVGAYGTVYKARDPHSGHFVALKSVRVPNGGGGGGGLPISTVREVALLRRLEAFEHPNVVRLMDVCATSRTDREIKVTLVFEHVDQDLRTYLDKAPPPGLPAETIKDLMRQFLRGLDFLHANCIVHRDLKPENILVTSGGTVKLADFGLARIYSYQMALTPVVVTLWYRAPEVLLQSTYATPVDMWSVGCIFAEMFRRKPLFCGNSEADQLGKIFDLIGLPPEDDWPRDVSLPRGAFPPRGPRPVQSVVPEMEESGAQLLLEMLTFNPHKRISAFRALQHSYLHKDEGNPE
T1 sequence (P24385 whole entry partner): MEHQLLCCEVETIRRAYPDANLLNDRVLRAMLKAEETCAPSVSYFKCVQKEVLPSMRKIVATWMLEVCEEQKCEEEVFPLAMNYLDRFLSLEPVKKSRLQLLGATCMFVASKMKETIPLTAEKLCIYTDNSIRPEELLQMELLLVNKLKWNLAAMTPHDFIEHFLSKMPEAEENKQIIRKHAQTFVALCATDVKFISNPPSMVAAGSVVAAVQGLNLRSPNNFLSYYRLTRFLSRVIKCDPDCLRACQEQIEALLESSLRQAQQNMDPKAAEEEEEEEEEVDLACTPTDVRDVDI
Protocol: (§1) The experimental materials included CDK2/cyclin A, CDK4/cyclin D1, CDK6/cyclin D1 (Life Technologies); ULight-labeled polypeptide substrates, i.e., ULight-4E-BP1 and ULight-MBP (PerkinElmer); the europium-labeled antibody against anti-myelin basic protein and europium-labeled rabbit antibody (PerkinElmer); and Envision® Multilabel Plate Reader (PerkinElmer) used for signal detection.
(§2) The compounds to be tested were diluted three times so as to be at ten gradually varied concentrations.
(§3) The dilutions of the compounds were dissolved in enzyme buffer, respectively. The components of the buffer included 50 mM hydroxyethylpiperazine ethanesulfonic acid solution (pH 7.5), 1 mM ethylenediaminetetraacetic acid, 10 mM magnesium chloride, 0.01% Brij-35, and 2 mM dithiothreitol. After the reaction started, the OptiPlate 384-well plate was sealed with top heat-sealing film TopSeal-A and incubated at room temperature for 180 minutes. • The Enzyme Reaction System of CDK6/Cyclin D1
(§4) The stop buffer of the enzyme reaction was prepared by dissolving EDTA in a one-fold dilution of the assay buffer. The reaction was terminated at room temperature for 5 minutes. To each of the reaction systems of CDK2/cyclin A, CDK4/cyclin D1 and CDK6/cyclin D1 was added 5 μL assay mixture (provided with antibody the europium-labeled against anti-myelin basic protein and the europium-labeled rabbit antibody, respectively). They were incubated at room temperature for 60 minutes. The reaction signals were detected by the EnVision instrument according to the principle of time-resolved fluorescence resonance energy transfer.

[2] = biological target: T2, CDK6/cyclin D1 (Homo sapiens, UniProt Q00534); test: CDK6/cyclin D1 Lance Ultra enzyme assay; type: biochemical; settings: for IC50: 250 μM ATP, 180 minutes; for inhibitory activities against CDK6 compared with the reference compounds: versus Palbociclib and LY2835219, in words
T2 construct: purchased Life Technologies
T2 sequence (Q00534 whole entry): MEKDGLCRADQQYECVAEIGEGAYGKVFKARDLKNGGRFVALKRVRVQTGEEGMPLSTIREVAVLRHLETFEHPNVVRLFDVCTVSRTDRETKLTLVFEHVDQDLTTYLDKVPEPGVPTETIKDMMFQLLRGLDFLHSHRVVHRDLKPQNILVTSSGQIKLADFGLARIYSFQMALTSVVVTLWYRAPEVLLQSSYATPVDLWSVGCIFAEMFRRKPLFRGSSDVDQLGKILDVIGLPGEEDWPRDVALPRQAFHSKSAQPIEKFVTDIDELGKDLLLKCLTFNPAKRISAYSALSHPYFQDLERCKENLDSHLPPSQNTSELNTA
T2 sequence (P24385 whole entry partner): as the sequence (P24385 whole entry partner) above
Protocol: as §1, §2
as §3, with “minutes.” for “minutes. • The Enzyme Reaction System of CDK6/Cyclin D1”
as §4

[3] = test system: MDA-MB-436 cells; test: MDA-MB-436 cell proliferation (CellTiter-Glo); type: cell-based; settings: Homo sapiens
Protocol: RPMI 1640 medium, fetal bovine serum, penicillin/streptomycin were purchased from Promega (Madison, Wis.). The MCF-7 cell line and the MDA-MB-436 cell line were purchased from the European Collection of Authenticated Cell Cultures (ECACC). EnVision® Multilabel Plate Reader (PerkinElmer) was used.
(§5) The compounds to be tested were diluted three times using Bravo to the tenth concentration, i.e., diluted from 10 μM to 0.508 nM. A duplicate well test was performed. The medium was added to the middle plate in an amount of 49 μL per well. The gradient dilutions of the compounds were transferred in an amount of 1 μL per well to the middle plate at the corresponding positions, and the mixture was mixed and transferred to the cell plate in an amount of 5 μL per well. The cell plate was incubated in a carbon dioxide incubator for 6 days. Promega CellTiter-Glo reagent was added to the cell plate in an amount of 25 μL per well. The cell plate was incubated at room temperature for 10 minutes to stabilize the luminescence signal. EnVision® Multilabel Plate Reader (PerkinElmer) was used for signal detection.
The IC50 values were obtained by curve fitting using four parameters (obtained from the 205 mode in XLFIT5, iDBS). Table 1 provides the inhibitory activities of the compounds of the invention against the proliferation of MCF-7 cells and MDA-MB-436 cells.

[4] = test system: human breast cancer cell line MCF-7; type: in vivo; settings: for Tomor volumes: 25.0 mg/kg orally daily
Protocol: The in vivo pharmacodynamic study was carried out in human-based tumor cell line-derived xenografted (CDX) BALB/c nude mice, in which were subcutaneously implanted human breast cancer cell line MCF-7.
. All the cages, matts and water were disinfected before use. All the animals had free access to a standard certified commercial laboratory diet. A total of 100 mice were purchased from Shanghai BK Laboratory Animal Co., LTD for study. An estrogen tablet ([…], sustained release within 60 days) was subcutaneously implanted in the left next abdomen of each mice. After 3 days, the tumor cells (10×10^6 in 0.2 mL of phosphate buffer) were subcutaneously implanted in the right next abdomen of each mice for the tumor growth. The administration started when the average tumor volume reached about 150-200 mm^3. The test compounds were orally administered daily, the doses were shown as Table 5. The tumor volumes were measured with a two-dimensional caliper every three days, the volumes were expressed in cubic millimeters and calculated by the formula V=0.5a×b^2, wherein a and b were the major diameter and minor diameter of the tumor, respectively. Antitumor efficacy was determined by dividing an average increase of the tumor volumes of the animals treated with the compounds by an increase of the tumor volumes of the untreated animals.

[5] = test system: MCF-7 cells; test: MCF-7 cell proliferation (CellTiter-Glo, 6 days); type: cell-based, human; settings: for IC50: Homo sapiens, MCF7, proliferation, 6 days; for MCF-7/MDA-MB-436: ratio of the proliferation IC50 values; for inhibitory activities against the proliferation of MCF-7 cells compared with the reference compounds: versus Palbociclib and LY2835219, in words
Protocol: EnVision® Multilabel Plate Reader (PerkinElmer) was used.
MCF-7 cells were inoculated in a black 384-well plate by adding 45 μL of the cell suspension (containing 200 of MCF-7 cells) to each of the wells. The plate was incubated overnight in a carbon dioxide incubator.
as §5, with “A” for “The compounds to be tested were diluted three times using Bravo to the tenth concentration, i.e., diluted from 10 μM to 0.508 nM. A”

[6] = biological target: T3, CDK2/cyclin A (Homo sapiens, UniProt P24941); test: CDK2/cyclin A Lance Ultra enzyme assay; type: biochemical; settings: 25 μM ATP, 60 minutes
T3 construct: purchased Life Technologies
Protocol: as §1, §2
as §3, with “The gradient dilutions of” for “The dilutions of”, “temperature for 60 minutes. •” for “temperature for 180 minutes. •”, “System of CDK4/Cyclin D1” for “System of CDK6/Cyclin D1”
as §4

[7] = test system: Caco-2 monolayer cells; test: Caco-2 cell bi-directional permeability assessment; settings: Caco-2
Protocol: The standard experimental conditions were as follows: • Test concentration: 2 μM (DMSO≤1%); • Number of replication: n=2; • Direction: bi-directional transportation, including two directions, i.e., A→B and B→A; • Incubation time: single time point, 2 hours; • Transport buffer: HBSS, pH 7.4; • Incubation conditions: 37° C., 5% CO2.
After the incubation, sample solutions taken from the dosing wells and the receiving wells were immediately mixed with a cold acetonitrile solution containing the internal standard. Concentrations of the test compounds in all samples (including the initial dosing solutions, the supernatants of the dosing wells and the receiving solutions) were determined by a LC/MS/MS method. The apparent permeability coefficients, the efflux ratios and other parameters were calculated.

[8] = Study of brain permeability after oral administration; type: in vivo, SD rats; settings: rat, versus Palbociclib and LY2835219, in words; b797: 0.5 hour and 2 hour
Protocol: SD rats were used as the test animals.
Twelve healthy 7- to 9-week-old adult male SD rats were purchased from Shanghai Slack Laboratory Animal Co., Ltd. A proper amount of the test compound was weighed to prepare a 0.5% methylcellulose suspension at 1 mg/mL. The rats received a single oral dose of 10 mg/kg. 0.5 h, 2 h, 8 h, and 24 hours after the administration, 3 rats were respectively killed, and their whole blood and brain tissues were collected. The plasma was prepared by centrifuging the whole blood (3000 g, 15 minutes, 4° C.). The samples of brain homogenate were prepared by mixing the brain tissues with a mixture of methanol and a phosphate buffer (methanol:phosphate buffer=1:2) as homogenate at a ratio of 5:1. The drug concentration of each sample was determined by LC/MS/MS, and AUC was calculated to evaluate the exposure.

Row | Compound | inhibitory activities against CDK4 compared with the reference compounds [1] | IC50 [2] | inhibitory activities against CDK6 compared with the reference compounds [2] | IC50 [3] | Tomor volumes ([4]; 0 day) | Tomor volumes ([4]; 7th day) | Tomor volumes ([4]; 14th day) | Tomor volumes ([4]; 21st day) | antitumor activities in the CDX model of MCF-7 breast cancer ([4]; in words) | IC50 [5] | MCF-7/MDA-MB-436 [5] | IC50 [1] | IC50 [6] | inhibitory activities against the proliferation of MCF-7 cells compared with the reference compounds [5] | Classification Substrates of efflux transporters [7] | exposure in brain tissue compared with the reference compounds [8]
1 | CC(C)c1c2cc(-c3nc(Nc4ccc(N5CCNCC5)cn4)ncc3F)ccc2nn1C [Example 3, 5-fluoro-4-(3-isopropyl-2-methyl-2H-indazol-5-yl)-N-(5-(piperazin-1-yl)pyridin-2-yl) pyrimidine-2-amine] | higher inhibitory activities | < 0.8 nM | higher inhibitory activities | 328 nM | 187 mm^3 | 249 mm^3 | 288 mm^3 | 432 mm^3 | significant antitumor activities | 32.1 nM | 10.2 | – | – | – | – | –
2 | CC(C)c1c2cc(-c3nc(Nc4ccc(N5CCN(CCN)CC5)cn4)ncc3F)ccc2nn1C [Example 9, N-[5-[4-(2-aminoethyl)piperazin-1-yl]-2-pyridyl]-5-fluoro-4-(3-isopropyl-2-methyl-2H-indazol-5-yl)pyrimidine-2-amine] | higher inhibitory activities | < 0.8 nM | higher inhibitory activities | 667 nM | – | – | – | – | – | 45 nM | 14.8 | 0.31 nM | 5.95 nM | higher inhibitory activities | – | –
3 | CC(C)c1c2cc(-c3nc(Nc4ccc(N5CCN(CCO)CC5)cn4)ncc3F)ccc2nn1C [Example 10, 2-[4-[6-[[5-fluoro-4-(3-isopropyl-2-methyl-2H-indazol-5-yl)pyrimidin-2-yl]amino]-3-pyridyl]piperazin-1-yl]ethanol] | higher inhibitory activities | 0.97 nM | higher inhibitory activities | 496 nM | – | – | – | – | – | 28.9 nM | 17.2 | 0.88 nM | 6.62 nM | higher inhibitory activities | – | –
4 | CC(C)c1c2cc(-c3nc(Nc4ccc(C5CCNCC5)cn4)ncc3F)ccc2nn1C [Example 13, 5-fluoro-4-(3-isopropyl-2-methyl-2H-indazol-5-yl)-N-[5-(piperidin-4-yl)-2-pyridyl]pyrimidine-2-amine] | – | – | – | – | – | – | – | – | – | – | – | – | – | – | not a substrate of an efflux transporter | much higher
5 | CC(C)c1c2cc(-c3nc(Nc4ccc(N5C[C@@H]6C[C@H]5CN6)cn4)ncc3F)ccc2nn1C [Example 15, N-(5-((1 S,4S)-2,5-diazabicyclo[2.2.1]heptan-2-yl)pyridin-2-yl)-5-fluoro-4-(3-isopropyl-2-methyl-2H-indazol-5-yl)pyrimidine-2-amine] | higher inhibitory activities | < 0.8 nM | higher inhibitory activities | 522 nM | – | – | – | – | – | 56 nM | 9.3 | < 0.3 nM | 2.82 nM | higher inhibitory activities | – | –
6 | CC(C)c1c2c(nn1C)CCN(c1nc(Nc3ccc(C4CCN(C)CC4)cn3)ncc1F)C2 [Example 24] | – | 5.79 nM | – | 3280 nM | – | – | – | – | – | 265 nM | 12.4 | 1.38 nM | 32.8 nM | – | – | –
